Test results reported in patent US10233188B2, “CDK2/4/6 inhibitors” (priority 2016, dated 2019).

Tests used:
CDK2/Cyclin E1 = CDK2/Cyclin E1 (Homo sapiens (Human), UniProt P24941); test: biochemical; settings: CDK2_Ki (nM), phosphorylated CDK2/Cyclin E1, 150 μM ATP, Morrison tight-binding fit
Description: The assay was initiated with the addition of ATP, following a fifteen minutes pre-incubation of enzyme and inhibitor at room temperature in the reaction mixture. The reaction was stopped after 45 minutes at room temperature by the addition of 50 μL of 80 mM EDTA, pH 7.5.

CDK6/Cyclin D1 = CDK6/Cyclin D1 (Homo sapiens (Human), UniProt Q00534); test: biochemical; settings: CDK6_Ki (nM), non-phosphorylated CDK6/Cyclin D1, 2 mM ATP, Morrison fit
Sequence of CDK6/Cyclin D1 (Q00534 whole entry): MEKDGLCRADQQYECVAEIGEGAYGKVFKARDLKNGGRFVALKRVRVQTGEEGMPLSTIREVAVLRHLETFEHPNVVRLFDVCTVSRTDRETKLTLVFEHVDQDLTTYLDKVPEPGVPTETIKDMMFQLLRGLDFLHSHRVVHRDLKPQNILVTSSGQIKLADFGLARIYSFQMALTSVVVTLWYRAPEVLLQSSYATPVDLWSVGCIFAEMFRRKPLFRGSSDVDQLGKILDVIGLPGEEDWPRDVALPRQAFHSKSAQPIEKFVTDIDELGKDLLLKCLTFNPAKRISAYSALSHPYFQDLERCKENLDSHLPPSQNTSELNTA
Sequence of CDK6/Cyclin D1 (P24385 whole entry partner): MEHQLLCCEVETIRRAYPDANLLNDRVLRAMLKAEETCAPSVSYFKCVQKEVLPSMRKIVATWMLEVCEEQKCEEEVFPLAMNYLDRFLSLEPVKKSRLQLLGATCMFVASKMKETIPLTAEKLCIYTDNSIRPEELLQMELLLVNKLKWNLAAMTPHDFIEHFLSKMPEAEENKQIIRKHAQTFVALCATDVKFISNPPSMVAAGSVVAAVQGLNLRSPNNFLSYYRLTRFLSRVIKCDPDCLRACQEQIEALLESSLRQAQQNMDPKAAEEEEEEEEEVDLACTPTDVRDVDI

Work on `CNS(=O)(=O)N1CCC(Nc2ncc3cc(C)c(=O)n([C@@H]4CCC[C@@]4(C)O)c3n2)CC1` (single isomer, unassigned) [Example 94, (−)-4-({8-[(1R*,2R*)-2-hydroxy-2-methylcyclopentyl]-6-methyl-7-oxo-7,8-dihydropyrido[2,3-d]pyrimidin-2-yl}amino)-N-methylpiperidine-1-sulfonamide] yielded a Ki (CDK2/Cyclin E1) of 0.09 nM and a Ki (CDK6/Cyclin D1) of 0.33 nM.

For `C[C@]1(O)CCC[C@@H]1n1c(=O)ccc2cnc(NC3CCN(S(=O)(=O)C4CC4)CC3)nc21` (single isomer, unassigned) [Example 75, (+)-2-{[1-(cyclopropylsulfonyl)piperidin-4-yl]amino}-8-[(1R*,2R*)-2-hydroxy-2-methylcyclopentyl]pyrido[2,3-d]pyrimidin-7(8H)-one], the Ki (CDK2/Cyclin E1) was 3.85 nM and the Ki (CDK6/Cyclin D1) was 4.96 nM.

`CS(=O)(=O)N1CCC(Nc2ncc3cc(CC(=O)O)c(=O)n(C4CCCC4)c3n2)CC1` [Example 147, (8-cyclopentyl-2-{[1-(methylsulfonyl)piperidin-4-yl]amino}-7-oxo-7,8-dihydropyrido[2,3-d]pyrimidin-6-yl)acetic acid] showed a Ki (CDK2/Cyclin E1) of 1.57 nM and a Ki (CDK6/Cyclin D1) of 0.45 nM.

Work on `C[C@]1(O)CCC[C@@H]1n1c(=O)ccc2cnc(NC3CCN(S(=O)(=O)c4nncs4)CC3)nc21` (single isomer, unassigned) [Example 81, (+)-8-[(1R*,2R*)-2-hydroxy-2-methylcyclopentyl]-2-{[1-(1,3,4-thiadiazol-2-ylsulfonyl)piperidin-4-yl]amino}pyrido[2,3-d]pyrimidin-7(8H)-one] yielded a Ki (CDK2/Cyclin E1) of 7.03 nM and a Ki (CDK6/Cyclin D1) of 6.24 nM.

Work on `CS(=O)(=O)N1CCC(Nc2ncc3cc(Cl)c(=O)n([C@@H]4CC[C@@H](O)C4)c3n2)CC1` (single isomer, unassigned) [Example 170, (−)-6-chloro-8-[(1R*,3R*)-3-hydroxycyclopentyl]-2-{[1-(methylsulfonyl)piperidin-4-yl]amino}pyrido[2,3-d]pyrimidin-7(8H)-one] yielded a Ki (CDK2/Cyclin E1) of 6.03 nM and a Ki (CDK6/Cyclin D1) of 1.82 nM.

With `Cc1cc2cnc(NC3CCN(S(C)(=O)=O)CC3)nc2n([C@H]2C[C@@H](O)C[C@H]2C)c1=O` (single isomer, unassigned) [Example 200, (+)-8-[(1R*,2S*,4R*)-4-hydroxy-2-methylcyclopentyl]-6-methyl-2-{[1-(methylsulfonyl)piperidin-4-yl]amino}pyrido[2,3-d]pyrimidin-7(8H)-one] the Ki (CDK2/Cyclin E1) was 9.51 nM and the Ki (CDK6/Cyclin D1) was 4.72 nM.

`CC[C@]1(O)CCC[C@@H]1n1c(=O)c(Cl)cc2cnc(NC3CCN(S(C)(=O)=O)CC3)nc21` (single isomer, unassigned) [Example 196, (+)-6-chloro-8-[(1R*,2R*)-2-ethyl-2-hydroxycyclopentyl]-2-{[1-(methylsulfonyl)piperidin-4-yl]amino}pyrido[2,3-d]pyrimidin-7(8H)-one] showed a Ki (CDK2/Cyclin E1) of 5.72 nM and a Ki (CDK6/Cyclin D1) of 3.84 nM.

In the case of `CNS(=O)(=O)N1CCC(Nc2ncc3cc(CCO)c(=O)n(C4CCCC4)c3n2)CC1` [Example 146, 4-{[8-cyclopentyl-6-(2-hydroxyethyl)-7-oxo-7,8-dihydropyrido[2,3-d]pyrimidin-2-yl]amino}-N-methylpiperidine-1-sulfonamide], the Ki (CDK2/Cyclin E1) is reported as 1.51 nM and the Ki (CDK6/Cyclin D1) is reported as 1.1 nM.

`Cc1cc2cnc(NC3CCN(S(=O)(=O)NCC(C)(F)F)CC3)nc2n([C@H]2CCC[C@]2(C)O)c1=O` (single isomer, unassigned) [Example 105, (+)-N-(2,2-difluoropropyl)-4-({8-[(1R*,2R*)-2-hydroxy-2-methylcyclopentyl]-6-methyl-7-oxo-7,8-dihydropyrido[2,3-d]pyrimidin-2-yl}amino)piperidine-1-sulfonamide] gave a Ki (CDK2/Cyclin E1) of 3.35 nM and a Ki (CDK6/Cyclin D1) of 22.7 nM.

`Cc1cc2cnc(NC3CCN(S(C)(=O)=O)CC3)nc2n(C2CCCCC(O)C2)c1=O` (single isomer, unassigned; isomer a) [Example 223, 8-(3-hydroxycycloheptyl)-6-methyl-2-{[1-(methylsulfonyl)piperidin-4-yl]amino}pyrido[2,3-d]pyrimidin-7(8H)-one-Isomer A] showed a Ki (CDK2/Cyclin E1) of 57.1 nM and a Ki (CDK6/Cyclin D1) of 21 nM.

With `COC(C)(C)CNS(=O)(=O)N1CCC(Nc2ncc3ccc(=O)n([C@@H]4CCC[C@@]4(C)O)c3n2)CC1` (single isomer, unassigned) [Example 60, (−)-4-({8-[(1R*,2R*)-2-hydroxy-2-methylcyclopentyl]-7-oxo-7,8-dihydropyrido[2,3-d]pyrimidin-2-yl}amino)-N-(2-methoxy-2-methylpropyl)piperidine-1-sulfonamide] the Ki (CDK2/Cyclin E1) was 0.48 nM and the Ki (CDK6/Cyclin D1) was 3.18 nM.

`CNS(=O)(=O)N1CCC(Nc2ncc3cc(C)c(=O)n([C@@H]4CCC[C@@H]4C)c3n2)CC1` [Example 42, N-methyl-4-({6-methyl-8-[(1R,2S)-2-methylcyclopentyl]-7-oxo-7,8-dihydropyrido[2,3-d]pyrimidin-2-yl}amino)piperidine-1-sulfonamide] was tested, and the Ki (CDK2/Cyclin E1) was 155 nM and the Ki (CDK6/Cyclin D1) was 46.1 nM.

For `CS(=O)(=O)N1CCC(Nc2ncc3cc(Cl)c(=O)n([C@H]4CCC[C@H](O)C4)c3n2)CC1` (single isomer, unassigned) [Example 35, (−)-6-chloro-8-[(1R*,3R*)-3-hydroxycyclohexyl]-2-{[1-(methylsulfonyl)piperidin-4-yl]amino}pyrido[2,3-d]pyrimidin-7(8H)-one], the Ki (CDK2/Cyclin E1) was 19.2 nM and the Ki (CDK6/Cyclin D1) was 7.82 nM.

Work on `C[C@@]1(O)CCC[C@H]1n1c(=O)c(F)cc2cnc(NC3CCN(S(C)(=O)=O)CC3)nc21` (single isomer, unassigned) [Example 5, (+)-6-fluoro-8-[(1R*,2R*)-2-hydroxy-2-methylcyclopentyl]-2-{[1-(methylsulfonyl)piperidin-4-yl]amino}pyrido[2,3-d]pyrimidin-7(8H)-one] yielded a Ki (CDK2/Cyclin E1) of 4.75 nM and a Ki (CDK6/Cyclin D1) of 13.1 nM.

Compound `C[C@H]1CCC[C@H]1n1c(=O)c(Cl)cc2cnc(NC3CCN(S(C)(=O)=O)CC3)nc21` [Example 38, 6-chloro-8-[(1R,2S)-2-methylcyclopentyl]-2-{[1-(methylsulfonyl)piperidin-4-yl]amino}pyrido[2,3-d]pyrimidin-7(8H)-one] has a Ki (CDK2/Cyclin E1) of 0.27 nM and a Ki (CDK6/Cyclin D1) of 0.42 nM.

Work on `CCS(=O)(=O)N1CCC(Nc2ncc3cc(C)c(=O)n([C@H]4CCC[C@]4(C)O)c3n2)CC1` (single isomer, unassigned) [Example 111, (+)-2-{[1-(ethylsulfonyl)piperidin-4-yl]amino}-8-[(1R*,2R*)-2-hydroxy-2-methylcyclopentyl]-6-methylpyrido[2,3-d]pyrimidin-7(8H)-one] yielded a Ki (CDK2/Cyclin E1) of 2.14 nM and a Ki (CDK6/Cyclin D1) of 4.9 nM.

In the case of `Cc1cc2cnc(NC3CCN(S(=O)(=O)NCC(C)(F)F)CC3)nc2n([C@@H]2CCC[C@@]2(C)O)c1=O` (single isomer, unassigned) [Example 104, (−)-N-(2,2-difluoropropyl)-4-({8-[(1R*,2R*)-2-hydroxy-2-methylcyclopentyl]-6-methyl-7-oxo-7,8-dihydropyrido[2,3-d]pyrimidin-2-yl}amino)piperidine-1-sulfonamide], the Ki (CDK2/Cyclin E1) is reported as 0.14 nM and the Ki (CDK6/Cyclin D1) is reported as 0.77 nM.

Compound `CS(=O)(=O)N1CCC(Nc2ncc3cc(N)c(=O)n(C4CCCC4)c3n2)CC1` [Example 28, 6-amino-8-cyclopentyl-2-{[1-(methylsulfonyl)piperidin-4-yl]amino}pyrido[2,3-d]pyrimidin-7(8H)-one] has a Ki (CDK2/Cyclin E1) of 1.88 nM and a Ki (CDK6/Cyclin D1) of 1.2 nM.

With `C[C@]1(O)CCC[C@@H]1n1c(=O)c(CCO)cc2cnc(NC3CCN(S(C)(=O)=O)CC3)nc21` (single isomer, unassigned) [Example 123, (+)-6-(2-hydroxyethyl)-8-[(1R*,2R*)-2-hydroxy-2-methylcyclopentyl]-2-{[1-(methylsulfonyl)piperidin-4-yl]amino}pyrido[2,3-d]pyrimidin-7(8H)-one] the Ki (CDK2/Cyclin E1) was 0.76 nM and the Ki (CDK6/Cyclin D1) was 6.14 nM.

`COCCc1cc2cnc(N[C@H]3CCN(S(C)(=O)=O)C[C@@H]3F)nc2n(C2CCCC2)c1=O` (single isomer, unassigned) [Example 158, (−)-8-cyclopentyl-2-{[(3S*,4S*)-3-fluoro-1-(methylsulfonyl)piperidin-4-yl]amino}-6-(2-methoxyethyl)pyrido[2,3-d]pyrimidin-7(8H)-one] showed a Ki (CDK2/Cyclin E1) of 3.89 nM and a Ki (CDK6/Cyclin D1) of 0.66 nM.

Work on `Cc1cc2cnc(NC3CCN(S(C)(=O)=O)CC3)nc2n([C@@H]2CCC[C@H]2O)c1=O` [Example 173, 8-[(1R,2R)-2-hydroxycyclopentyl]-6-methyl-2-{[1-(methylsulfonyl)piperidin-4-yl]amino}pyrido[2,3-d]pyrimidin-7(8H)-one] yielded a Ki (CDK2/Cyclin E1) of 2.95 nM and a Ki (CDK6/Cyclin D1) of 3.52 nM.

`CC(=O)c1c(C)c2cnc(NC3CCN(S(C)(=O)=O)CC3)nc2n([C@@H]2CCC[C@@]2(C)O)c1=O` (single isomer, unassigned) [Example 177, (−)-6-acetyl-8-[(1R*,2R*)-2-hydroxy-2-methylcyclopentyl]-5-methyl-2-{[1-(methylsulfonyl)piperidin-4-yl]amino}pyrido[2,3-d]pyrimidin-7(8H)-one] gave a Ki (CDK2/Cyclin E1) of 1.22 nM and a Ki (CDK6/Cyclin D1) of 0.14 nM.

`C[C@@H]1CCC[C@@H]1n1c(=O)c(CCO)cc2cnc(NC3CCN(S(C)(=O)=O)CC3)nc21` [Example 41, 6-(2-hydroxyethyl)-8-[(1S,2R)-2-methylcyclopentyl]-2-{[1-(methylsulfonyl)piperidin-4-yl]amino}pyrido[2,3-d]pyrimidin-7(8H)-one] was tested, and the Ki (CDK2/Cyclin E1) was 0.48 nM and the Ki (CDK6/Cyclin D1) was 0.36 nM.

`COC(C)(C)CNS(=O)(=O)N1CCC(Nc2ncc3cc(C)c(=O)n([C@H]4CCC[C@]4(C)O)c3n2)CC1` (single isomer, unassigned) [Example 99, (+)-4-({8-[(1R*,2R*)-2-hydroxy-2-methylcyclopentyl]-6-methyl-7-oxo-7,8-dihydropyrido[2,3-d]pyrimidin-2-yl}amino)-N-(2-methoxy-2-methylpropyl)piperidine-1-sulfonamide] showed a Ki (CDK2/Cyclin E1) of 2.88 nM and a Ki (CDK6/Cyclin D1) of 14.3 nM.

Compound `C[C@]1(O)CCC[C@@H]1n1c(=O)ccc2cnc(NC3CCN(S(=O)(=O)c4nccs4)CC3)nc21` (single isomer, unassigned) [Example 79, (+)-8-[(1R*,2R*)-2-hydroxy-2-methylcyclopentyl]-2-{[1-(1,3-thiazol-2-ylsulfonyl)piperidin-4-yl]amino}pyrido[2,3-d]pyrimidin-7(8H)-one] has a Ki (CDK2/Cyclin E1) of 7.32 nM and a Ki (CDK6/Cyclin D1) of 9.59 nM.
